Literature values, collected in patent publication US20250311736A1, “SEED TREATMENT METHODS FOR INCREASING YIELD IN CROP PLANTS” (BAYER AKTIENGESELLSCHAFT, priority 2021, published 2025).

Tested on: plants
Settings: Tavares et al., 2011; Suwitchayanon et al., 2019

O=C(/C=C/C=C/c1ccc2c(c1)OCO2)N1CCCCC1 [piperine]
phytotoxic effect on plants (inhibits their growth): phytotoxic effect
